The structures appear in SMILES notation.

A short description of one data set: in vivo. Further details: species or system rat. To be noted: for T1/2: rats. Here is the method: A simple and sensitive method for the determination of Ailanthonein plasma was developed, using high-performance liquid chromatography-tandem mass spectrometry (HPLC-MS/MS). Brusatol was used as an internal standard. […] The details of this HPLC-MS/MS method and sample preparation are described in our previous study^37.
The statistical analysis was performed by SPSS 22.0 software. The differences between control group and experimental groups were determined by one-way ANOVA. Since treatment and time course was investigated, two-way ANOVA followed by post hoc test was also applied. Data was expressed as mean and standard deviation (s.d.) and P<0.05 was considered significant. Pharmacokinetic parameters were calculated by WinNonlin software version 5.2.1 (Pharsight Corporation, Mountain View, USA) based on noncompartmental analysis.
Sprague-Dawley rats (purchased from Shanghai SLAC laboratory animal Co. Ltd., Shanghai, China) were fasted for 12 h with free access to water prior to the pharmacokinetic study. The rats were randomized into two groups for oral administration (5 mg/kg) and intravenous injection (1 mg/kg). Blood samples were collected from the orbital plexus into heparinized centrifuge tubes at fifteen different time points between 5 min to 36 h for the oral administration group and nine time points between 5 min to 6 h for the intravenous one. The pharmacokinetic parameters were calculated by WinNonlin software version 5.2.1 based on noncompartmental analysis. Oral bioavailability was calculated as F (%)=AUC0-∞(p.o.)/AUC0-∞(i.v.)×Dose (i.v.)/Dose (p.o.).

Data set [1] concerns CYP2C11, CYP3A1/2 and CYP1A2. To be noted: mouse, in vivo. As for the experimental part: FIG. 6A-FIG. 6H. Pharmacokinetic studies of AIL. […] Images show tumors at harvest (30 days after treatment). Scale bar, 1 cm. […] AIL or vehicle control was measured by Western blotting analysis (D) and the livers were photographed and stained with HE (e). Scale bar, the black scale bar is 1 cm (top) and the white scale bar is 50 μm (bottom). […] Scale bar, 1 cm.

Another data set has as its system c4-2b. Put plainly: SRB cell growth assay, androgen-starved cells with R1881. To be noted: androgen-starved c4-2b, 0.1 nM R1881, 96 hours; 10 μM BIC, 10 μM MDV, 0.1 μM AIL.
For the next data set, the system named is 22RV1. The data set is described as above. To be noted: androgen-starved 22RV1, 0.1 nM R1881, 96 hours; 10 μM BIC, 10 μM MDV, 0.1 μM AIL.
Another data set deals with VCaP xenografts. Put plainly: Subcutaneous VCaP xenograft model. Format: in vivo, mouse. To be noted: 10 mg/kg MDV or 2 mg/kg AIL i.p., 32 days.
Data set [2] concerns AR-regulated genes (PSA, TMPRSS2, FKBP5, SLC45A3, NDRG1 mRNA). In words: Quantitative real-time PCR of AR-regulated genes. To be noted: 22RV1 cells, 10 nM R1881, 10 μM MDV or 0.2 μM AIL, 12 hours. (In qPCR the cycle at which signal appears reflects the starting amount.)
Protocol: The genes expression was measured byquantitative-PCR.
Total RNA was extracted using TRIzol (Takara, Japan) according to the manufacturer's instructions. 1 μg of total RNA was used for cDNA synthesis using a cDNA reverse transcription kit (Takara, Japan). Real-time PCR was performed in triplicate using gene-specific primers on a Stratagene Mx3005P PCR system (Agilent Technologies) machine. The mRNA expression levels were normalized to β-actin expression or GAPDH.
For another data set, the system named is LNCaP cells. Put plainly: SRB cell growth assay, androgen-starved cells with R1881. To be noted: 0.1 nM R1881, 96 hours, 10 μM BIC, 10 μM MDV, 0.1-0.4 μM AIL.
In a further data set the test system is LNCaP-MDV3100-R cells. In words: SRB cell growth assay, MDV3100-resistant cells. To be noted: 72 hours, 20 μM BIC, 20 μM MDV, 0.1 μM AIL.
Data set [3] has as its system 22RV1-luc orthotopic xenografts. Put plainly: Orthotopic castration resistant prostate cancer model. Format: in vivo, mouse. To be noted: castrated mice, 2 mgkg^−1 AIL or 10 mgkg^−1 MDV i.p. once per day, 28 days.
Protocol: (A,B) The dorsolateral prostate of male BALB/c-nude mice was injected with 1×10^6 22RV1-luc cells in 30 μl matrigel. […] After 28 days, mice were sacrificed and the local tumors were removed and volumes and weight of the tumors were measured (A).
For orthotopic castration resistant prostate cancer xenografts, male BALB/c-nude mice (8-9 weeks of age) were anesthetized using 150 mgkg^−1 2,2,2-tribromethanol plus 350 mgkg^−1 tert-amyl alcohol and then 5×10^5 22RV1-luc cells suspended in 30 μl 50% Matrigel were surgically injected into the dorsolateral prostate lobes. One week after injection, the tumor-bearing mice were castrated and randomly assigned to three groups. […] Prostate tumor growth and local metastasis were monitored weekly using the IVIS Imaging System (Xenogen Corporation, Alameda, Calif.). Images and measurements of bioluminescent signals were acquired and analyzed using LivingImage and Xenogen software^52.
Another data set concerns HSP90 and HSP70. Put plainly: Western blotting of AR molecular chaperones. Format: cell-based, human. To be noted: LNCaP and 22RV1, 12 hours. For orientation: Immunoblotting shows a protein as a band on a membrane.
Setting [4] is: Sprague-Dawley, rat, in vivo, iv, 1 mg/kg.
Where [5] appears, read: Sprague-Dawley, rat, in vivo, po, 5 mg/kg.

Protocol for HSP90 and HSP70: Cells were lysed and AR, HSP90 and HSP70 protein levels were measured by Western blot analysis.
Lysates were fractionated on polyacrylamide gels and transferred to nitrocellulose. The blots were probed with specific antibodies followed by secondary antibody then membranes were examined using the LI-COR Odyssey infrared imaging system (LI-COR Biotechnology, Lincoln Nebr.). […] The β-actin antibody (1:10000) was purchased from Sigma (St. Louis, Mo.).
Protocol for LNCaP-MDV3100-R cells: Cell growth was determined by SRB assay.
The half maximal inhibitory concentration (IC50) was calculated using GraphPad Prism 5.0 (GraphPad, San Diego, Calif.).
Protocol for VCaP xenografts: (A-C) 22RV1 (A), LNCaP (B) and Vcap (C) cells were injected with 0.1 ml PBS (22RV1) or Matrigel (LNCaP, Vcap) into the right flank of BALB/c-nude. […] Tumor volume and the mouse body weight were measured once a week. The mice were sacrificed after 28 days (22RV1), 49 days (LNCaP) or 32 days (Vcap) and the tumors from each group of mice were harvested and images were taken. […] Data represent the mean±s.d.
BALB/c-nude mice (6-8 weeks old, male) were purchased from the Sino-British Sippr/BK Lab Animal Co., Ltd (Shanghai, China) and maintained under pathogen-free conditions. The animal use protocol was approved by the Institutional Animal Care and Use Committee of East China Normal University. […] The tumor volume and mouse body weight were measured twice a week. The tumor volume was calculated using the following equation: tumor volume (V)=length×width×width×0.52.
BALB/c-nude mice (6-8 week old, male) were purchased from the Sino-British Sippr/BK Lab Animal Co., Ltd (Shanghai, China) and maintained under pathogen-free conditions. […] The tumor volume and mouse body weight were measured twice a week. The tumor volume was calculated using the following equation: tumor volume (V)=length×width×width×0.52.

Usually bioavailability stands for dose-corrected exposure relative to a reference, in per cent. As to `C=C1[C@@H](O)[C@]2(O)OC[C@]34[C@H]2[C@@]2(C)[C@H](O)C(=O)C=C(C)[C@@H]2C[C@H]3OC(=O)C[C@@H]14` [AIL, 11β,20-Epoxy-1β,11,12α-trihydroxypicrasa-3,13(21)-diene-2,16-dione], the “Bioavailability (oral)” value in “in vivo” (Sprague-Dawley, rat, in vivo) is on record as 25.7%. Further, the bioavailability in “in vivo” (Sprague-Dawley, rat, in vivo) was more than 20%. For the same compound, the figures for the AUC0-t in the data set “in vivo” (setting [4]) and in “in vivo” (setting [5]) were 57874.3 ± 6871.1 ng·min/mL and 67324.5 ± 7405.3 ng·min/mL, respectively. For the same compound, the “AUC0-∞” value came out at 61517.4 ± 5986.2 ng·min/mL in “in vivo” (setting [4]) and 79053.9 ± 14616.6 ng·min/mL in the data set “in vivo” (setting [5]). For the same compound, in the data set “in vivo” (rat, in vivo, po), the “absorption, elimination and distribution after oral administration” value was “absorbed quickly, eliminated rapidly and distributed widely in tissues”. Moreover, the T1/2 in “in vivo” (i.v. 1 mg kg^−1, mean ± s.d.) amounted to 1.888 ± 0.66 h; in “in vivo” (p.o. 5 mg kg^−1, mean ± s.d.) it was 12.17 ± 2.598 h. In [1], the “expression of CYP enzymes in liver” value is given as “did not influence the expression”.

As to `CNC(=O)c1ccc(N2C(=S)N(c3ccc(C#N)c(C(F)(F)F)c3)C(=O)C2(C)C)cc1F` [MDV], the “cell growth (SRB)” value is given as “could not significantly inhibit cell growth” in the data set with c4-2b, “could not significantly inhibit cell growth” in the data set with 22RV1, “effectively blocked cell growth” in the data set with LNCaP cells and “totally resistant” with LNCaP-MDV3100-R cells. Further, the “xenograft sensitivity (tumor volume)” value in the data set with VCaP xenografts is given as “still responded”. The “PSA mRNA level in the presence of R1881” value in [2] is reported as “decreased”. The “reduction of tumor volume” value in data set [3] worked out at 15%.

For `C=CCNC1=C2C[C@@H](C)C[C@H](OC)[C@H](O)[C@@H](C)/C=C(\C)[C@H](OC(N)=O)[C@@H](OC)/C=C\C=C(/C)C(=O)NC(=CC1=O)C2=O` [17-AAG], the “HSP90 and HSP70 protein levels” value in the data set on HSP90 and HSP70 is “induced up-regulation of HSP90 and HSP70 protein”.

Values taken from patent US10420747B2 (priority 2016, dated 2019).
